Assay results from US20250135049A1, “Methods for Biological Material Labeling and Medical Imaging” (Mayo Foundation for Medical Education and Research, priority 2021, published 2025).

Legend:
[1] = test system: human decidual stromal cells (hDSCs), bone marrow-derived macrophages (rMac) and human peripheral blood mononuclear cells (hPBMCs); settings: Ref. 72; cited from earlier work
[2] = PET imaging and ex vivo biodistribution studies; type: in vivo, athymic nude mice; settings: for SUV Average ± SD: day 7 post-injection, free [^89Zr]ZrCl4, tail vein, n = 3
Experimental: 8-10 weeks old Athymic nude mice (male and female, 1:1) were obtained from Charles Rivers Laboratories or Taconic Biosciences, Inc.
After radiolabeling, the radiolabeled WBCs-0.1-0.6×10^6 (0.03-0.11 MBq); and SCs-0.1-1×10^6 (0.1-0.15 MBq) were injected in a group (n=3) of athymic nude mice, via tail vein injection. PET images were acquired at 4 hours, 2 days, 4 days and 7 days post-injection (p.i.) using microPET scanner. The free [^89Zr] ZrCl4 with radioactivity (0.15-0.19 MBq) was also injected intravenously via tail vein injection. The micro PET images were analyzed and scaled to SUV by image analysis software. The animals were euthanized at 7 days p.i., and organs/tissues were collected to measure standardized uptake value (SUV) in major organs. Animals were euthanized via cardiectomy under anesthesia using isoflurane as approved by the Institutional Animal Care and Use Committee (IACUC) of the Mayo Clinic Rochester MN, USA.

[3] = Stability of HPLC-purified [^89Zr]Zr-DBN with and without ascorbic acid (HPLC); type: physicochemical; settings: for stability of [^89Zr]Zr-DBN: stored at -20° C.
Experimental: The purified and concentrated [^89Zr] Zr-DBN was stored at −20° C. and stability was tested at 0 hours, 24 hours, and 72 hours post HPLC purification and concentration in comparison with unpurified [^89Zr] Zr-DBN which was also stored at −20° C. To test the stability, the frozen [^89Zr] Zr-DBN was allowed to come to room temperature and reconstituted with ˜100 μL DMSO. The reconstituted [^89Zr] Zr-DBN (˜ 3.7 MBq) was diluted with ˜900 μL neutralized deionized water (pH 7.0) and pH was further adjusted to pH 7.0 using 1M Na2CO3. The stability of reconstituted and neutralized [^89Zr] Zr-DBN was tested using the same HPLC method that was used for [^89Zr] Zr-DBN purification.
The HPLC purified [^89Zr] Zr-DBN (˜7.2 mL) was divided into two equal parts of ˜3.6 mL each. In one-part, 25 μL of 200 mg/mL ascorbic acid (Sigma Aldrich, St. Louis, MO, USA) was added. Both ascorbic acid treated, and untreated fractions were concentrated at 0.42 torr and room temperature. […] Zr-DBN purification.

Q: Which “apparent efflux of ^89Zr from the labeled cells” value [1] does the source give for `[89Zr+4].[O-]c1cccc2cccnc12.[O-]c1cccc2cccnc12.[O-]c1cccc2cccnc12.[O-]c1cccc2cccnc12` [[^89Zr] Zr-oxine] here?
A: 29-38%

Q: For `[Cl][89Zr]([Cl])([Cl])[Cl]` [[^89Zr]ZrCl4, [^89Zr] ZrCl4], which “SUV Average ± SD” value ([2]; Bladder) is on record?
A: 0.32 ± 0.09

Q: What about the “SUV Average ± SD” value ([2]; Blood) of the same compound?
A: 0.12 ± 0.01

Q: And the “SUV Average ± SD” value ([2]; Bone)?
A: 9.89 ± 0.4

Q: And the “SUV Average ± SD” value ([2]; Brain)?
A: 0.02 ± 0.02

Q: And the “SUV Average ± SD” value ([2]; Heart)?
A: 0.26 ± 0.03

Q: And the “SUV Average ± SD” value ([2]; Intestine)?
A: 0.09 ± 0.01

Q: And the “SUV Average ± SD” value ([2]; Kidney)?
A: 0.49 ± 0.07

Q: And the “SUV Average ± SD” value ([2]; Liver)?
A: 0.61 ± 0.07

Q: And the “SUV Average ± SD” value ([2]; Lung)?
A: 0.36 ± 0.06

Q: What about the “SUV Average ± SD” value ([2]; Muscle) of the same compound?
A: 0.14 ± 0.05

Q: What about the “SUV Average ± SD” value ([2]; Pancreas) of the same compound?
A: 0.29 ± 0.02

Q: What about the “SUV Average ± SD” value ([2]; Skin) of the same compound?
A: 0.42 ± 0.14

Q: And the “SUV Average ± SD” value ([2]; Spleen)?
A: 0.39 ± 0.09

Q: What about the “SUV Average ± SD” value ([2]; Urine) of the same compound?
A: 0.08 ± 0.03

Q: What about the “distribution of radioactivity on micro PET imaging” value ([2]; intravenous injection, 4 hours, 2 days, 4 days, 7 days) of the same compound?
A: high accumulation of free ^89Zr in the bones

Q: With “[^89Zr] zirconium-p-isothiocyanatobenzyl-desferrioxamine [[^89Zr] Zr-DBN]” as the compound, how does the “stability of [^89Zr]Zr-DBN” value ([3]; 72 hours post HPLC purification, without ascorbic acid) read?
A: 66%

Q: What about the “stability of [^89Zr]Zr-DBN” value ([3]; 72 hours, with addition of ascorbic acid (25 μL of 200 mg/mL)) of the same compound?
A: > 82%

Q: What about the “enhancement of the 27.1 minutes HPLC peak for [^89Zr]Zr-DBN by ascorbic acid” value ([3]; immediately after concentration, ascorbic acid added before the concentration step) of the same compound?
A: ~12%
